Data as given in article PMC12947280, “An Antifungal with a Novel Mechanism of Action Discovered via Resistance Gene-Guided Genome Mining” (ACS Central Science, 2026).
≈ marks a conversion by molar mass, not a printed value. Where two headings read alike, the source gives them in different places.

Experiments:
Assay in all cases: Antifungal screening, broth microdilution MIC
Assay type in all cases: cell-based
[1] = system: Aspergillus fumigatus; conditions: for MIC: Aspergillus fumigatus
Method: (§1) Antifungal screening of 1
(§2) Antifungal screening was performed by Micromyx, LLC (Kalamazoo, Michigan, USA). Test organisms were either reference strains from the American Type Culture Collection (ATCC; Manassas, VA), the Centers for Disease Control and Prevention (CDC; Atlanta, GA), or clinical isolates from the Micromyx (MMX) collection. Upon receipt at Micromyx, the isolates were streaked under suitable conditions onto agar medium appropriate to each organism. The yeast isolates were incubated for 24 hr at 35 °C and the fungi were incubated for 7 to 13 days at 35 °C, as appropriate. Colonies harvested from these growth plates were resuspended in the appropriate medium containing a cryoprotectant. Aliquots of each suspension were then frozen […]
(§3) Prior to testing, the yeast isolates were streaked from frozen vials onto Sabouraud Dextrose Agar (SAB; Becton Dickenson [BD]/BBL; Sparks, MD, Lot No. 2228660) and were incubated at 35°C for 24 hr. Additional fungal isolates were streaked from frozen vials onto potato dextrose agar (BD/BBL; Sparks, MD, Lot No. 2046481) and incubated under optimal conditions for […]
(§4) All MIC measurements were performed in RPMI1640 from Hyclone Laboratories (Logan, UT;
(§5) Cat. No. SH3001104; Lot No. AC10257966A) buffered with MOPS to pH-7 from Millipore […]
(§6) MIC values were determined using a broth microdilution procedure described by CLSI. 5,6.
(§7) Automated liquid handlers (Multidrop 384, Labsystems, Helsinki, Finland; Biomek 3000 and […]
(§8) Biomek FX, Beckman Coulter Fullerton CA) were used to conduct serial dilutions and liquid […]
(§9) Solutions of 1 were added in an 11 point 2x serial dilution in DMSO with a maximum tested concentration of 32 μg/ml in the culture medium. Drug solution was added at 1% v/v into 200 μl […]
(§10) A standardized inoculum of each test organism was prepared in appropriate media per CLSI methods.5,6 The plates were then inoculated with 10 µL of the diluted inoculum using the Biomek 3000 from low to high drug concentration, resulting in a final concentration of approximately 0.5 to 2.5 x 10^3 CFU/mL for yeast and 0.2 to 2.5 x 10^4 CFU/mL for the other fungi. An un-inoculated plate was incubated for the purpose of assessing solubility of the drug […]
(§11) The plates were stacked 3 to 4 high, covered with a sterile lid on the top plate, and incubated aerobically at 35 °C for 24, 48, and 72 h. For yeast, both the MIC based on complete inhibition and 50% inhibition were reported at 24 and 48 h. For other fungal isolates, the MIC values were recorded at 24 and 48 hr and were based on complete inhibition and 50% inhibition.
(§12) Intact protein LCMS analysis
(§13) 10 μM of recombinant S. cerevisiae ALS was incubated with 10 μM compound 1 in buffer (50 mM Tris pH 7.5, 100 mM KCl, 10 uM FAD, 1 mM TPP, 10 mM MgCl2 (with 2.5% DMSO from compound)) at 22 °C for 30 min. Unreacted 1 was removed by passing the reaction mixture through a 30 kDa MWCO filter (Millipore). The collected protein was then denatured and reduced by incubation with 6 M urea and 10 mM DTT at 37 °C for 1 h followed by 20 mM iodoacetamide alkylation for 30 min in dark. This reaction mixture then underwent buffer exchange into 100 mM Tris-HCl pH 8.0 and 10 mM CaCl2 buffer using a 30 kDa MWCO filter.
(§14) The protein was then incubated with sequencing grade chymotrypsin (Promega) (15:1,w/w) for […]
(§15) After digestion, the peptide mixture was immediately analysed by LC-MS/MS using a Waters I-class UPLC equipped with an ACQUITY UPLC BEH C18 column (2.1x50 mm, 1.7 µm, Waters) at 50 °C coupled to a Waters Synapt G2Si MS. The sample was injected and subjected to an LC gradient starting from 0.5% mobile phase B (ACN with 0.1% formic acid) for 5 min with linear increase to 40% B over 35 min. Mobile phase A was 0.1% formic acid water. Flow rate was maintained at 0.3 ml/min. MS/MS data was acquired in positive ionization mode with data dependent MS/MS acquisition. Peptide mapping was performed with PEAKs Studio 8.0 (Bioinformatics Solutions Inc.) followed by manual review to identify peptides putatively modified by covalent addition of 1. […]

[2] = system: Aspergillus niger ATCC 9508; conditions: for MIC: ATCC9508, Aspergillus niger ATCC 9508
Method: as §1, §2, §3, §4, §5, §6, §7, §8, §9, §10, §11, §12, §13, §14, §15

[3] = system: Fusarium solani ATCC MYA-3636; conditions: for MIC: Fusarium solani ATCC MYA-3636
Method: as §1, §2, §3, §4, §5, §6, §7, §8, §9, §10, §11, §12, §13, §14, §15

[4] = system: Scedosporium prolificans ATCC 11274; conditions: for MIC: Lomentospora prolificans, ATCC11274, Scedosporium prolificans ATCC 11274
Method: as §1, §2, §3, §4, §5, §6, §7, §8, §9, §10, §11, §12, §13, §14, §15

[5] = 24 hr, read-out: MIC 100% growth inhibition
[6] = 24 hr, read-out: MIC >50% growth inhibition
[7] = 48 hr, read-out: MIC 100% growth inhibition
[8] = 48 hr, read-out: MIC >50% growth inhibition

Structure (SMILES): CCCC1C(C)=CC2CC=CC3(C)C2C1C(=O)C31C(=O)NC(CCCO)C1=O (stereo not drawn) [compound 1]
- MIC (Table S5) ([1]; A. fumigatus, species summary): 2-16
- MIC ([1]; 24 h, read-out: MIC 100% growth inhibition, Aspergillus fumigatus ATCC MYA-3626, 24 hr): 4 µg/mL (≈ 10.4 µM)
- MIC ([1]; 24 h, read-out: MIC 100% growth inhibition, Aspergillus fumigatus CDC 0731 (azole resistant), 24 hr): 16 µg/mL (≈ 41.5 µM)
- MIC ([1]; 24 h, read-out: MIC 100% growth inhibition, Aspergillus fumigatus CDC 0732 (azole resistant), 24 hr): 8 µg/mL (≈ 20.8 µM)
- MIC ([1]; 24 h, read-out: MIC 100% growth inhibition, Aspergillus fumigatus CDC 0733 (azole resistant), 24 hr): 8 µg/mL (≈ 20.8 µM)
- MIC ([1]; 24 h, read-out: MIC 100% growth inhibition, Aspergillus fumigatus CDC 0734 (azole resistant), 24 hr): 8 µg/mL (≈ 20.8 µM)
- MIC ([1]; 24 h, read-out: MIC 100% growth inhibition, Aspergillus fumigatus CDC 0735 (azole resistant), 24 hr): 8 µg/mL (≈ 20.8 µM)
- MIC ([1]; 24 h, read-out: MIC 100% growth inhibition, Aspergillus fumigatus CDC 0736 (azole susceptible), 24 hr): 8 µg/mL (≈ 20.8 µM)
- MIC ([1]; 24 h, read-out: MIC 100% growth inhibition, Aspergillus fumigatus CDC 0737 (azole susceptible), 24 hr): 16 µg/mL (≈ 41.5 µM)
- MIC ([1]; 24 h, read-out: MIC 100% growth inhibition, Aspergillus fumigatus CDC 0738 (azole susceptible), 24 hr): 2 µg/mL (≈ 5.19 µM)
- MIC ([1]; 24 h, read-out: MIC 100% growth inhibition, Aspergillus fumigatus CDC 0739 (azole susceptible), 24 hr): 4 µg/mL (≈ 10.4 µM)
- MIC ([1]; 24 h, read-out: MIC 100% growth inhibition, Aspergillus fumigatus CDC 0740 (azole susceptible), 24 hr): 4 µg/mL (≈ 10.4 µM)
- MIC ([1]; 24 h, read-out: MIC >50% growth inhibition, Aspergillus fumigatus ATCC MYA-3626, 24 hr): 4 µg/mL (≈ 10.4 µM)
- MIC ([1]; 24 h, read-out: MIC >50% growth inhibition, Aspergillus fumigatus CDC 0731 (azole resistant), 24 hr): 2 µg/mL (≈ 5.19 µM)
- MIC ([1]; 24 h, read-out: MIC >50% growth inhibition, Aspergillus fumigatus CDC 0732 (azole resistant), 24 hr): 2 µg/mL (≈ 5.19 µM)
- MIC ([1]; 24 h, read-out: MIC >50% growth inhibition, Aspergillus fumigatus CDC 0733 (azole resistant), 24 hr): 4 µg/mL (≈ 10.4 µM)
- MIC ([1]; 24 h, read-out: MIC >50% growth inhibition, Aspergillus fumigatus CDC 0734 (azole resistant), 24 hr): 4 µg/mL (≈ 10.4 µM)
- MIC ([1]; 24 h, read-out: MIC >50% growth inhibition, Aspergillus fumigatus CDC 0735 (azole resistant), 24 hr): 4 µg/mL (≈ 10.4 µM)
- MIC ([1]; 24 h, read-out: MIC >50% growth inhibition, Aspergillus fumigatus CDC 0736 (azole susceptible), 24 hr): 4 µg/mL (≈ 10.4 µM)
- MIC ([1]; 24 h, read-out: MIC >50% growth inhibition, Aspergillus fumigatus CDC 0737 (azole susceptible), 24 hr): 2 µg/mL (≈ 5.19 µM)
- MIC ([1]; 24 h, read-out: MIC >50% growth inhibition, Aspergillus fumigatus CDC 0738 (azole susceptible), 24 hr): 1 µg/mL (≈ 2.59 µM)
- MIC ([1]; 24 h, read-out: MIC >50% growth inhibition, Aspergillus fumigatus CDC 0739 (azole susceptible), 24 hr): 1 µg/mL (≈ 2.59 µM)
- MIC ([1]; 24 h, read-out: MIC >50% growth inhibition, Aspergillus fumigatus CDC 0740 (azole susceptible), 24 hr): 1 µg/mL (≈ 2.59 µM)
- MIC ([1]; 48 h, read-out: MIC 100% growth inhibition, Aspergillus fumigatus ATCC MYA-3626, 48 hr): > 32 µg/mL
- MIC ([1]; 48 h, read-out: MIC 100% growth inhibition, Aspergillus fumigatus CDC 0731 (azole resistant), 48 hr): > 32 µg/mL
- MIC ([1]; 48 h, read-out: MIC 100% growth inhibition, Aspergillus fumigatus CDC 0732 (azole resistant), 48 hr): > 32 µg/mL
- MIC ([1]; 48 h, read-out: MIC 100% growth inhibition, Aspergillus fumigatus CDC 0733 (azole resistant), 48 hr): > 32 µg/mL
- MIC ([1]; 48 h, read-out: MIC 100% growth inhibition, Aspergillus fumigatus CDC 0734 (azole resistant), 48 hr): > 32 µg/mL
- MIC ([1]; 48 h, read-out: MIC 100% growth inhibition, Aspergillus fumigatus CDC 0735 (azole resistant), 48 hr): > 32 µg/mL
- MIC ([1]; 48 h, read-out: MIC 100% growth inhibition, Aspergillus fumigatus CDC 0736 (azole susceptible), 48 hr): > 32 µg/mL
- MIC ([1]; 48 h, read-out: MIC 100% growth inhibition, Aspergillus fumigatus CDC 0737 (azole susceptible), 48 hr): > 32 µg/mL
- MIC ([1]; 48 h, read-out: MIC 100% growth inhibition, Aspergillus fumigatus CDC 0738 (azole susceptible), 48 hr): > 32 µg/mL
- MIC ([1]; 48 h, read-out: MIC 100% growth inhibition, Aspergillus fumigatus CDC 0739 (azole susceptible), 48 hr): 32 µg/mL (≈ 83 µM)
- MIC ([1]; 48 h, read-out: MIC 100% growth inhibition, Aspergillus fumigatus CDC 0740 (azole susceptible), 48 hr): 32 µg/mL (≈ 83 µM)
- MIC ([1]; 48 h, read-out: MIC >50% growth inhibition, Aspergillus fumigatus ATCC MYA-3626, 48 hr): > 32 µg/mL
- MIC ([1]; 48 h, read-out: MIC >50% growth inhibition, Aspergillus fumigatus CDC 0731 (azole resistant), 48 hr): > 32 µg/mL
- MIC ([1]; 48 h, read-out: MIC >50% growth inhibition, Aspergillus fumigatus CDC 0732 (azole resistant), 48 hr): > 32 µg/mL
- MIC ([1]; 48 h, read-out: MIC >50% growth inhibition, Aspergillus fumigatus CDC 0733 (azole resistant), 48 hr): > 32 µg/mL
- MIC ([1]; 48 h, read-out: MIC >50% growth inhibition, Aspergillus fumigatus CDC 0734 (azole resistant), 48 hr): > 32 µg/mL
- MIC ([1]; 48 h, read-out: MIC >50% growth inhibition, Aspergillus fumigatus CDC 0735 (azole resistant), 48 hr): 32 µg/mL (≈ 83 µM)
- MIC ([1]; 48 h, read-out: MIC >50% growth inhibition, Aspergillus fumigatus CDC 0736 (azole susceptible), 48 hr): 16 µg/mL (≈ 41.5 µM)
- MIC ([1]; 48 h, read-out: MIC >50% growth inhibition, Aspergillus fumigatus CDC 0737 (azole susceptible), 48 hr): 16 µg/mL (≈ 41.5 µM)
- MIC ([1]; 48 h, read-out: MIC >50% growth inhibition, Aspergillus fumigatus CDC 0738 (azole susceptible), 48 hr): 32 µg/mL (≈ 83 µM)
- MIC ([1]; 48 h, read-out: MIC >50% growth inhibition, Aspergillus fumigatus CDC 0739 (azole susceptible), 48 hr): 16 µg/mL (≈ 41.5 µM)
- MIC ([1]; 48 h, read-out: MIC >50% growth inhibition, Aspergillus fumigatus CDC 0740 (azole susceptible), 48 hr): 16 µg/mL (≈ 41.5 µM)
- MIC [2, 5]: 2 µg/mL (≈ 5.19 µM)
- MIC [2, 6]: 1 µg/mL (≈ 2.59 µM)
- MIC [2, 7]: 32 µg/mL (≈ 83 µM)
- MIC [2, 8]: 8 µg/mL (≈ 20.8 µM)
- MIC (Table S5) ([2]; Aspergillus niger, species summary): 2
- MIC [3, 5]: > 32 µg/mL
- MIC [3, 6]: > 32 µg/mL
- MIC [3, 7]: > 32 µg/mL
- MIC [3, 8]: > 32 µg/mL
- MIC (Table S5) ([3]; Fusarium solani, species summary): > 32
- MIC [4, 5]: 8 µg/mL (≈ 20.8 µM)
- MIC [4, 6]: 2 µg/mL (≈ 5.19 µM)
- MIC [4, 7]: > 32 µg/mL
- MIC [4, 8]: > 32 µg/mL
- MIC (Table S5) ([4]; Scedosporium prolificans, species summary): 8
